{"source": "patent US3981999A", "about": "“Fish disease treatment” (Dainippon Pharmaceutical Co., Ltd., priority 1973, dated 1976)", "key": {"[1]": {"system": "Pseudomonas anguilliseptica T-2", "test": "MIC by broth serial dilution", "format": "cell-based", "experimental": "(§1) The MIC (minimum inhibitory concentration) of a test compound was determined by the serial dilution method on various pathogenic microorganisms incubated under the following experimental conditions. The lowest concentration at which the visible growth of the organism was inhibited was considered as MIC. […]\n(§2) the broth-dilution method bouillon, pH 7.2, except for Vibrio (3% NaCl-bouillon, pH 7.2), Pasteurella (2% NaCl-Brain Heart Infusion, pH 7.3 and Chondrococcus (TY medium, pH 7.3) 1 drop of a bacterial suspension per test tube (100 - 1000 minimal growing units in the medium) 25°C, except for Pseud. anguilliseptica (20°C)\n(§3) 48 hours, except for Pseudo. anguilliseptica ([…])"}, "[2]": {"system": "Vibrio anguillarum K-3", "test": "MIC by broth serial dilution", "format": "cell-based", "experimental": "as §1, §2, §3"}, "[3]": {"system": "Aeromonas salmonicida Hara-2", "test": "MIC by broth serial dilution", "format": "cell-based", "experimental": "as §1, §2, §3"}, "[4]": {"system": "Aeromonas salmonicida Hara-1", "test": "MIC by broth serial dilution", "format": "cell-based", "experimental": "as §1, §2, §3"}, "[5]": {"system": "Chondrococcus sp K-2", "test": "MIC by broth serial dilution", "format": "cell-based", "experimental": "as §1, §2, §3"}, "[6]": {"system": "Chondrococcus sp K-1", "test": "MIC by broth serial dilution", "format": "cell-based", "experimental": "as §1, §2, §3"}, "[7]": {"system": "Aeromonas salmonicida Kawazu", "test": "MIC by broth serial dilution", "format": "cell-based", "experimental": "as §1, §2, §3"}, "[8]": {"system": "Aeromonas liquefaciens Y-62", "test": "MIC by broth serial dilution", "format": "cell-based", "details": "Aeromonas hydrophila", "experimental": "as §1, §2, §3"}, "[9]": {"system": "Pseudomonas anguilliseptica S-1", "test": "MIC by broth serial dilution", "format": "cell-based", "experimental": "as §1, §2, §3"}, "[10]": {"system": "Aeromonas salmonicida Kusuda", "test": "MIC by broth serial dilution", "format": "cell-based", "experimental": "as §1, §2, §3"}, "[11]": {"system": "Pasteurella piscicida K-1", "test": "MIC by broth serial dilution", "format": "cell-based", "details": "Photobacterium damselae", "experimental": "as §1, §2, §3"}, "[12]": {"system": "Pasteurella piscicida Al-3", "test": "MIC by broth serial dilution", "format": "cell-based", "details": "Photobacterium damselae", "experimental": "as §1, §2, §3"}, "[13]": {"system": "Vibrio anguillarum A-8", "test": "MIC by broth serial dilution", "format": "cell-based", "experimental": "as §1, §2, §3"}, "[14]": {"system": "Vibrio anguillarum Km-30", "test": "MIC by broth serial dilution", "format": "cell-based", "experimental": "as §1, §2, §3"}, "[15]": {"system": "Aeromonas liquefacieus Y-62", "test": "Oral effect against Aeromonas infection in goldfish", "format": "in vivo", "experimental": "Goldfish each weighing about 6 - 7 g were given a fish food containing each of the test compounds. After 30 minutes, the fish were infected intramuscularly with Aeromonas liquefacieus Y-62 (about 10^7 germs/fish) under ether anesthesia. […] In the same manner, the control group was given the same fish food without the test compound."}, "[16]": {"system": "goldfish", "test": "Oral toxicity in goldfish", "format": "in vivo", "details": "10% in diet (PA 800, AT-1493 955, AT-1557 935, AT-1475 923 mg/kg)", "experimental": "A diet containing 10% of each of the test compounds was given orally to groups each consisting of 5 goldfish each weighing 6 to 10 g, and observation was made for the following 7 days. The temperature of the water was maintained at 28°C."}, "[17]": {"details": "1% in diet, 80.4 mg/kg, day 0: 5 fish"}, "[18]": {"details": "3% in diet, 253.1 mg/kg, day 0: 5 fish"}, "[19]": {"details": "TY medium pH 7.3, 25°C, 48 hours, read-out: MIC"}, "[20]": {"details": "bouillon pH 7.2, 25°C, 48 hours, read-out: MIC"}, "[21]": {"details": "0.03% in diet (PA 2.5, AT-1493 2.5, AT-1557 2.2 mg/kg), day 0: PA 10, others 5 fish"}, "[22]": {"details": "0.1% in diet (PA 6.1, AT-1493 7.5, AT-1557 7.6, AT-1475 7.5 mg/kg), day 0: PA 10, others 5 fish"}}, "note": "Where two headings read alike, the source gives them in different places.", "data": [{"smiles": "CN(C)C1C(=O)C(C(N)=O)=C(O)C2(O)C(=O)C3=C(O)c4c(O)cccc4C(C)(O)C3CC12", "note": "(stereo not drawn) [Tetracycline, tetracycline, reference compound]", "values": [{"measurement": "MIC", "setting": "[1]; T2, 7 h, pH 7.2", "value": 0.3, "unit": "µg/mL"}, {"measurement": "MIC", "setting": "[2]; K3, 48 h, pH 7.2", "value": 1, "unit": "µg/mL"}, {"measurement": "MIC", "setting": "[3]; HARA2, 48 h, pH 7.2", "value": 0.1, "unit": "µg/mL"}, {"measurement": "MIC", "setting": "[4]; HARA1, 48 h, pH 7.2", "value": 0.3, "unit": "µg/mL"}, {"measurement": "MIC", "setting": "[5]; 48 h, pH 7.3", "value": 1, "unit": "µg/mL"}, {"measurement": "MIC", "setting": "[6]; 48 h, pH 7.3", "value": 1, "unit": "µg/mL"}, {"measurement": "MIC", "setting": "[7]; 48 h, pH 7.2", "value": 1, "unit": "µg/mL"}, {"measurement": "MIC", "setting": "[8]; Y62, 48 h, pH 7.2", "value": 1, "unit": "µg/mL"}, {"measurement": "MIC", "setting": "[9]; S1, 7 h, pH 7.2", "value": 0.3, "unit": "µg/mL"}, {"measurement": "MIC", "setting": "[10]; 48 h, pH 7.2", "value": 0.3, "unit": "µg/mL"}, {"measurement": "MIC", "setting": "[11]; K1, 48 h, pH 7.3", "value": 0.3, "unit": "µg/mL"}, {"measurement": "MIC", "setting": "[12]; AL3, 48 h, pH 7.3", "value": 0.3, "unit": "µg/mL"}, {"measurement": "MIC", "setting": "[13]; A8, 48 h, pH 7.2", "value": 1, "unit": "µg/mL"}, {"measurement": "MIC", "setting": "[14]; KM30, 48 h, pH 7.2", "value": 0.3, "unit": "µg/mL"}, {"measurement": "Percent survival", "setting": "[15]; 1% in diet, 80.4 mg/kg", "value": 0, "unit": "%"}, {"measurement": "Number of surviving fish after 1 day", "setting": "[15]; [17]", "value": 3}, {"measurement": "Number of surviving fish after 2 days", "setting": "[15]; [17]", "value": 0}, {"measurement": "Number of surviving fish after 3 days", "setting": "[15]; [17]", "value": 0}, {"measurement": "Percent survival", "setting": "[15]; 3% in diet, 253.1 mg/kg", "value": 0, "unit": "%"}, {"measurement": "Number of surviving fish after 1 day", "setting": "[15]; [18]", "value": 5}, {"measurement": "Number of surviving fish after 2 days", "setting": "[15]; [18]", "value": 1}, {"measurement": "Number of surviving fish after 3 days", "setting": "[15]; [18]", "value": 0}, {"measurement": "Percent survival", "setting": "[15]; diet concentration of as high as more than 0.1% as well as as low as 0.1%", "value": "zero"}]}, {"smiles": "C=Cn1cc(C(=O)O)c(=O)c2ccc(N3CCN(CC)CC3)cc21", "note": "[AT-1557, 1,4-Dihydro-7-(4-ethyl-1-piperazinyl)-4-oxo-1-vinylquinoline-3-carboxylic acid]", "values": [{"measurement": "MIC", "setting": "[1]; T2, bouillon pH 7.2, 20°C, 7 hours, read-out: MIC", "value": 0.1, "unit": "µg/mL"}, {"measurement": "MIC", "setting": "[2]; K3, 3% NaCl-bouillon pH 7.2, 25°C, 48 hours, read-out: MIC", "value": 10, "unit": "µg/mL"}, {"measurement": "MIC", "setting": "[3]; HARA2, bouillon pH 7.2, 25°C, 48 hours, read-out: MIC", "value": 0.3, "unit": "µg/mL"}, {"measurement": "MIC", "setting": "[4]; HARA1, bouillon pH 7.2, 25°C, 48 hours, read-out: MIC", "value": 0.3, "unit": "µg/mL"}, {"measurement": "MIC", "setting": "[5]; [19]", "value": 1, "unit": "µg/mL"}, {"measurement": "MIC", "setting": "[6]; [19]", "value": 1, "unit": "µg/mL"}, {"measurement": "MIC", "setting": "[7]; [20]", "value": 0.1, "unit": "µg/mL"}, {"measurement": "MIC", "setting": "[8]; Y62, bouillon pH 7.2, 25°C, 48 hours, read-out: MIC", "value": 0.3, "unit": "µg/mL"}, {"measurement": "MIC", "setting": "[9]; S1, bouillon pH 7.2, 20°C, 7 hours, read-out: MIC", "value": 0.1, "unit": "µg/mL"}, {"measurement": "MIC", "setting": "[10]; [20]", "value": 0.3, "unit": "µg/mL"}, {"measurement": "MIC", "setting": "[11]; K1, 2% NaCl-Brain Heart Infusion pH 7.3, 25°C, 48 hours, read-out: MIC", "value": 1, "unit": "µg/mL"}, {"measurement": "MIC", "setting": "[12]; AL3, 2% NaCl-Brain Heart Infusion pH 7.3, 25°C, 48 hours, read-out: MIC", "value": 1, "unit": "µg/mL"}, {"measurement": "MIC", "setting": "[13]; A8, 3% NaCl-bouillon pH 7.2, 25°C, 48 hours, read-out: MIC", "value": 3, "unit": "µg/mL"}, {"measurement": "MIC", "setting": "[14]; KM30, 3% NaCl-bouillon pH 7.2, 25°C, 48 hours, read-out: MIC", "value": 10, "unit": "µg/mL"}, {"measurement": "Percent survival", "setting": "[15]; 0.03% in diet (PA 2.5, AT-1493 2.5, AT-1557 2.2 mg/kg), 5 days", "value": 80, "unit": "%"}, {"measurement": "Number of surviving fish after 1 day", "setting": "[15]; [21]", "value": 5}, {"measurement": "Number of surviving fish after 2 days", "setting": "[15]; [21]", "value": 4}, {"measurement": "Number of surviving fish after 3 days", "setting": "[15]; [21]", "value": 4}, {"measurement": "Number of surviving fish after 4 days", "setting": "[15]; [21]", "value": 4}, {"measurement": "Number of surviving fish after 5 days", "setting": "[15]; [21]", "value": 4}, {"measurement": "Percent survival", "setting": "[15]; 0.1% in diet (PA 6.1, AT-1493 7.5, AT-1557 7.6, AT-1475 7.5 mg/kg), 5 days", "value": 100, "unit": "%"}, {"measurement": "Number of surviving fish after 1 day", "setting": "[15]; [22]", "value": 5}, {"measurement": "Number of surviving fish after 2 days", "setting": "[15]; [22]", "value": 5}, {"measurement": "Number of surviving fish after 3 days", "setting": "[15]; [22]", "value": 5}, {"measurement": "Number of surviving fish after 4 days", "setting": "[15]; [22]", "value": 5}, {"measurement": "Number of surviving fish after 5 days", "setting": "[15]; [22]", "value": 5}, {"measurement": "Mortality", "setting": "[16]; 7 days", "value": 0, "unit": "%"}, {"measurement": "Number of the survival after 1 day from administration", "setting": "[16]; day 0: 5 fish", "value": 5}, {"measurement": "Number of the survival after 2 days from administration", "setting": "[16]; day 0: 5 fish", "value": 5}, {"measurement": "Number of the survival after 3 days from administration", "setting": "[16]; day 0: 5 fish", "value": 5}, {"measurement": "Number of the survival after 4 days from administration", "setting": "[16]; day 0: 5 fish", "value": 5}, {"measurement": "Number of the survival after 5 days from administration", "setting": "[16]; day 0: 5 fish", "value": 5}, {"measurement": "Number of the survival after 6 days from administration", "setting": "[16]; day 0: 5 fish", "value": 5}, {"measurement": "Number of the survival after 7 days from administration", "setting": "[16]; day 0: 5 fish", "value": 5}]}]}
